Experimental data: patent US20250099465A1, “REMIBRUTINIB FOR USE IN THE TREATMENT OF HIDRADENITIS SUPPURATIVA” (NOVARTIS AG, priority 2022, published 2025)
“And” between values parts separate entries of the source, which are not always exact repeats. Equal entries are not always repeated. Where two headings read alike, the source gives them in different places.

Experiments:
[1] = human, in vivo; cited from earlier work
BTK [2] = molecular target: T1, BTK (Homo sapiens, UniProt Q06187); assay: Phase I clinical study (Kaul et al. 2021): PK, BTK occupancy in blood, short-term safety; format: in vivo
T1 construct: simulate BTK occupancy in human spleen/tissues; from tissue; host or cells: human spleen / lymph node / peripheral tissue B cells (simulated, not measured)
T1 sequence (Q06187 whole entry): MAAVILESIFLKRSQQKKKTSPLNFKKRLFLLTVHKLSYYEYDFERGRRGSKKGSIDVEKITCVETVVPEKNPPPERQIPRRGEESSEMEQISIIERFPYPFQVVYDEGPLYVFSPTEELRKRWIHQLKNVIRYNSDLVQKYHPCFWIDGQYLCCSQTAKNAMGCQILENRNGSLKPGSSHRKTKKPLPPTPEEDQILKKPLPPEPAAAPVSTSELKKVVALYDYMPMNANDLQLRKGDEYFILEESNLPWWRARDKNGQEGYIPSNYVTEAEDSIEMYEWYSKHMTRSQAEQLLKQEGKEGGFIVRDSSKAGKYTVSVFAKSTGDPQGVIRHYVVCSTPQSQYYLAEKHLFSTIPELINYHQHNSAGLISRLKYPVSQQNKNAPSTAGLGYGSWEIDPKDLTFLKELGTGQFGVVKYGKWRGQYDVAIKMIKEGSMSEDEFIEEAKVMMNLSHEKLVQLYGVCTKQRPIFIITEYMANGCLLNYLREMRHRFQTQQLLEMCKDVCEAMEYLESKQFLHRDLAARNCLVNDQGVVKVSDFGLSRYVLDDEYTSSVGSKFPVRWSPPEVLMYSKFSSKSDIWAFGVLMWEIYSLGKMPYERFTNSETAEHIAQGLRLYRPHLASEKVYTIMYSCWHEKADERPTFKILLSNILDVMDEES
From the text: BTK occupancy in blood is not an informative biomarker for the purpose of dose selection due to LOU064 pharmacological properties (irreversible binding). […] Occupancy in tissue may be more representative of the expected efficacy of LOU064.
Pharmacokinetic data from a Phase I clinical study reported by Kaul et al. (2021) were used in the current analysis, including 102 patients.
A population PK model has been developed to describe the interim PK from a Phase I clinical study reported by Kaul et al. (2021). […] Overall the resulting population model described the PK data reasonably well.

[3] = 52-week open label extension study in CSU subjects (interim analyses); format: in vivo;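 note: Open-label extension assessing long-term safety and tolerability in CSU patients previously enrolled in the Phase 2b trial, dosed at 100 mg b.i.d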
Experimental: In a 52-week open label extension study to evaluate the long-term safety and tolerability of LOU064 in eligible subjects with CSU who participated in the Phase 2b study the dose used was 100 mg b.i.d.
Table 4 presents the safety summary observed in the Phase 2b study up to the cut-off date for the interim analysis.

[4] = Phase 2b randomized, double-blind, placebo-controlled core study in CSU patients; format: in vivo
Experimental: In a Phase 2b, randomized, double-blind, placebo-controlled trial evaluating the efficacy and safety of LOU064 over 12 weeks in patients inadequately controlled by […], with at least moderately active chronic spontaneous urticaria (CSU), patients received LOU064 10 mg q.d. (once daily), 35 mg q.d., 100 mg q.d., 10 mg b.i.d. (twice daily), 25 mg b.i.d., 100 mg b.i.d., or placebo (1:1:1:1:1:1:1 ratio).
(Table 5) In the long-term exposure of the ES (median 35.14 wks, N=183), the proportion of patients with at least one adverse effect (AE) on remibrutinib treatment (57.4% [n=105]) was similar to the CS (presented through for any remibrutinib dose) (58.1% [n=155]; median 12.14 wks, N=267). In the ES, there were 4 serious adverse effects (SAEs), 6 AEs leading to treatment discontinuation and no deaths. The incidences of AEs by […] (SOC) reported in the ES and CS were similar: infections and infestations (23.0% and 24.0%), followed by skin/subcutaneous tissue disorder (17.5% and 16.9%) (Table 5). […] Incidence of AESI in the ES such as infections (23%), bleeding (4.4%) and cytopenias (0.5%) were in line with the CS. Newly occurring notable transaminase increases were single in both ES (isolated ALT>3×ULN, normalized within 4 weeks, in 1 patient discontinued early for personal reasons) and CS (ALT>5×ULN in 1 patient, normalised on treatment).

[5] = Co-administration of LOU064 with oral contraceptives; details: in vivo
From the text: Therefore, in a preferred embodiment, LOU064 is co-administered with oral contraceptives.

BTK [6] = molecular target: T1, BTK; details: single or multiple doses 0.5 mg to 600 mg up to 18 days; 100 and 200 mg b.i.d. up to 12 days; cited from earlier work
[7] = cited from earlier work
[8] = higher dose treatment arms; cited from earlier work
[9] = HS patients; cited from earlier work
HS explant cultures = details: cited from earlier work
B cells = details: case study; cited from earlier work
[10] = 100 mg B.I.D., N = 100, interim analysis cut off 31 Aug. 2020
[11] = 100 mg b.i.d., N = 100 interim analysis
[12] = ES, CSU patients, 100 mg b.i.d., N = 183, median 35.14 wks, listed as remibrutinib
[13] = Phase 2b core and extension study
[14] = CS, CSU patients, Any dose, N = 267, listed as remibrutinib

## CC#CC(=O)N1CCC[C@H]1c1nc(-c2ccc(C(=O)Nc3ccccn3)cc2)c2c(N)nccn12 [Acalabrutinib]
[1]
  commonly observed adverse reactions: infection, headache, and diarrhea

## C=CC(=O)N(C)CCOc1c(N)ncnc1-c1cc(F)cc(NC(=O)c2ccc(C3CC3)cc2F)c1C [LOU064, N-(3-(6-amino-5-(2-(N-methylacrylamido)ethoxy)pyrimidin-4-yl)-5-fluoro-2-methylphenyl)-4-cyclopropyl-2-fluorobenzamide]
BTK [2]; doses lower than 50 mg, no difference at higher doses
  change in clearance after repeated dosing: lower clearance at steady state at Day 12 when compared to Day 1
BTK [2]; low doses
  BTK occupancy in blood: reaches full occupancy even at low doses
[3]; [10]
  Death: 0 n (%)
  Discontinued study due to an SAE(s): 0 n (%)
  Discontinued study due to any AE(s): 0 n (%)
  Non-fatal SAE: 3 (3.0) n (%)
  Treatment interruption due to AE(s): 5 (5.0) n (%)
  Treatment interruption due to SAE(s): 1 (1.0) n (%)
[3]; 100 mg B.I.D., N = 100, interim analysis cut off 31 Aug. 2020, median exposure 17.86 weeks
  Patients with AE(s): 58 (58) n (%)
[3]; 100 mg b.i.d., 100 subjects, median exposure 17.86 weeks
  safety signal: No safety signal has been observed
[3]; [11]
  SAEs reported (ovarian cyst, chest pain, appendicitis; none related to study drug): Three
  SOC Infections and infestations: 14%
  SOC Skin and subcutaneous tissue disorders: 13%
  adverse event preferred term: diarrhea: 4%
  adverse event preferred term: dizziness: 3%
  adverse event preferred term: gastroenteritis: 3%
  adverse event preferred term: headache: 6%
  bleeding events or events under SOC Blood and lymphatic system disorders: no bleeding events
  subjects who experienced at least one treatment emergent AE: 58%
[3]; 100 mg b.i.d., up to 52 weeks
  dose-limiting liver enzyme elevations and other off-target-effects: does not induce any dose-limiting liver enzyme elevations and other off-target-effects
[3]; ES, 100 mg b.i.d., N=183
  Incidence of AESI: bleeding: 4.4%
  Incidence of AESI: cytopenias: 0.5%
  Incidence of AESI: infections: 23%
  Newly occurring notable transaminase increases: isolated ALT>3×ULN, normalized within 4 weeks: 1 patient
[3]; ES, 100 mg b.i.d., N=183, median 35.14 wks
  deaths: no deaths
[3]; ES, CSU patients, 100 mg b.i.d., N = 183, median 35.14 wks
  AEs by primary system organ class: Skin and subcutaneous tissue disorders: 32 n
[3]; [12]
  AEs by PT: Headache: 6.6%
  AEs by primary system organ class: Infections and infestations: 23.0%
  AEs by primary system organ class: Skin and subcutaneous tissue disorders: 17.5%
  Discontinued study treatment due to AE(s): 6 n
  Patients with SAE(s): 4 n
[3]; [13]
  ECG findings or QT of >500 ms: no significant ECG findings or QT of >500 ms noted in any patient
  analysis of laboratory parameters: did not reveal significant safety concerns
  vital signs: no clinically meaningful changes
[3]; whole dose range, 100 mg bid up to 52 wks, patients with CSU
  safety profile over longer-term exposure: no new safety signals
[4]; 25 mg b.i.d. regimen, 12 weeks, CSU inadequately controlled by antihistamines
  efficacy in CSU compared to the other doses: particularly effective
[4]; [14]
  AEs by PT: Headache: 9.7%
  AEs by primary system organ class: Infections and infestations: 24.0%
  AEs by primary system organ class: Skin and subcutaneous tissue disorders: 16.9%
[4]; CS, any remibrutinib dose
  Newly occurring notable transaminase increases: ALT>5×ULN, normalised on treatment: 1 patient
[5]
  impact on exposure and efficacy of co-administered oral contraceptives (ethinylestradiol or levonorgestrel): without a major impact on their exposure and efficacy
BTK [6]
  Short-term safety: has been shown

## C=CC(=O)N1CCC(CNc2ncnc(N)c2-c2ccc(Oc3ccccc3)cc2)CC1 [evobrutinib]
[7]; 75 mg b.i.d., Phase II clinical studies
  dose-limiting side effects: dose-limiting liver enzyme elevations

## C[C@H]1CN(C2COC2)CCN1c1ccc(Nc2cc(-c3ccnc(N4CCn5c(cc6c5CC(C)(C)C6)C4=O)c3CO)cn(C)c2=O)nc1 [fenebrutinib]
[8]
  subjects with transient grade 3 elevations of ALT and/or AST: 8.3% and 6.3%

## C=CC(=O)N1CCC[C@@H](n2c(=O)n(-c3ccc(Oc4ccccc4)cc3)c3c(N)nccc32)C1 [tolebrutinib]
[7]; human, in vivo
  dose-limiting side effects: dose-limiting diarrhea

## adalimumab
[9]
  patients with suboptimal therapeutic responses: ~40%

## rituximab: B-cell depletor, CD20 antagonist
HS explant cultures
  effect in HS explant cultures: anti-inflammatory effects
B cells
  outcome of HS treatment using B-cell depletion: successful treatment of HS
